The test system of the experiment is HCT116. The note with it: 72 h. In outline: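 After seeding at 250 cells per well in 1536-well plates, HCT116 cells were given 5 h to attach. CellTiter-Glo luminescence, scaled to 0% for vehicle and -100% for positive control, was pattern-corrected. Fitting with a four-parameter Hill model produced IC50 and maximal efficacy.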

SMILES strings stand for the structures.

As to `OC(CCN1CCCCC1)(c1ccccc1)C1CC2C=CC1C2` (configuration not stated) [Biperiden], the IC50 cell viability by setting is: (ICRF193 0 nM) over 45.8 µM; (ICRF193 200 nM) over 45.8 µM.

Turning to `N[C@@H]1CONC1=O` [D-Cycloserine], the IC50 cell viability runs as follows: (ICRF193 0 nM) over 45.8 µM; (ICRF193 200 nM) over 45.8 µM.

Turning to `CCOc1nc2cccc(C(=O)OCc3oc(=O)oc3C)c2n1Cc1ccc(-c2ccccc2-c2noc(=O)[nH]2)cc1` [Azilsartan Medoxomil], the IC50 cell viability (ICRF193 0 nM) is over 45.8 µM and the IC50 cell viability (ICRF193 200 nM) is over 45.8 µM.

As for `Cl[C@H]1[C@H](Cl)[C@@H](Cl)[C@@H](Cl)[C@H](Cl)[C@H]1Cl` [LINDANE], the IC50 cell viability runs as follows: (ICRF193 0 nM) over 45.8 µM; (ICRF193 200 nM) over 45.8 µM.

`Cc1onc(-c2ccccc2Cl)c1C(=O)N[C@@H]1C(=O)N2[C@@H]1SC(C)(C)[C@@H]2C(=O)O` [Cloxacillin sodium]: the IC50 cell viability is over 45.8 µM (ICRF193 0 nM) and over 45.8 µM (ICRF193 200 nM).

With `CN1CCCCC1CCN1c2ccccc2Sc2ccc([S+](C)[O-])cc21` (configuration not stated) [Mesoridazine], the IC50 cell viability is, setting by setting: (ICRF193 0 nM) over 45.8 µM; (ICRF193 200 nM) over 45.8 µM.

`CCN(CC)CCOC(=O)C1(c2ccccc2)CCCC1` [Caramiphen edisylate]: the IC50 cell viability (ICRF193 0 nM) was over 45.8 µM and the IC50 cell viability (ICRF193 200 nM) is over 45.8 µM.

For `COc1ccc2[nH]cc(CCNC(C)=O)c2c1` [Melatonin], the IC50 cell viability by setting is: (ICRF193 0 nM) over 45.8 µM; (ICRF193 200 nM) over 45.8 µM.

Regarding `N=C(N/N=C/c1ccc(Cl)cc1)N/N=C/c1ccc(Cl)cc1` [Robenidine], the IC50 cell viability is, setting by setting: (ICRF193 0 nM) over 45.8 µM; (ICRF193 200 nM) over 45.8 µM.

As to `O=C(O)CCCCC(=O)O` [Hexanedioic acid], the IC50 cell viability reads like this: (ICRF193 0 nM) over 45.8 µM; (ICRF193 200 nM) over 45.8 µM.

Regarding `CCCS(=O)(=O)Nc1ccc(F)c(C(=O)c2c[nH]c3ncc(-c4ccc(Cl)cc4)cc23)c1F` [Vemurafenib], the IC50 cell viability is, setting by setting: (ICRF193 0 nM) over 45.8 µM; (ICRF193 200 nM) over 45.8 µM.

Consider `COC1=C(C(=O)O)N2C(=O)[C@@H](NC(=O)[C@H](N)C3=CCC=CC3)[C@H]2SC1` [Cefroxadine], for which the IC50 cell viability is, setting by setting: (ICRF193 0 nM) over 45.8 µM; (ICRF193 200 nM) over 45.8 µM.

`CN1[C@@H]2CCC(C)(C)[C@H]1C[C@H](OC(=O)C(O)(c1cccs1)c1cccs1)C2` [Mazaticol]: the IC50 cell viability reads like this: (ICRF193 0 nM) over 45.8 µM; (ICRF193 200 nM) over 45.8 µM.

As to `CCCc1ccc(C(=O)O)cc1` [4-Propylbenzoic acid], the IC50 cell viability is over 45.8 µM (ICRF193 0 nM) and over 45.8 µM (ICRF193 200 nM).

As for `CCOC(=O)c1ncn2c1CN(C)C(=O)c1c(I)cccc1-2` [Iomazenil], the IC50 cell viability reads like this: (ICRF193 0 nM) over 45.8 µM; (ICRF193 200 nM) over 45.8 µM.

In the case of `CO/N=C(\C(=O)N[C@@H]1C(=O)N2C(C(=O)OCOC(=O)C(C)(C)C)=C(/C=C\c3scnc3C)CS[C@H]12)c1csc(N)n1` [Cefditoren (Pivoxil)], the IC50 cell viability was over 45.8 µM (ICRF193 0 nM) and over 45.8 µM (ICRF193 200 nM).

On to `N=C(N)c1ccc(/C=C/c2ccc(C(=N)N)cc2O)cc1` [Hydroxystilbamidine bis(methanesulfonate)], for which the IC50 cell viability runs as follows: (ICRF193 0 nM) over 45.8 µM; (ICRF193 200 nM) over 45.8 µM.

Turning to `CCC1=C(C)CN(C(=O)NCCc2ccc(S(=O)(=O)NC(=O)N[C@H]3CC[C@H](C)CC3)cc2)C1=O` [Glimepiride], the IC50 cell viability was over 45.8 µM (ICRF193 0 nM) and over 45.8 µM (ICRF193 200 nM).

As for `CC(C)NCCCC1(C(N)=O)c2ccccc2-c2ccccc21` [Indecainide], the IC50 cell viability is, setting by setting: (ICRF193 0 nM) over 45.8 µM; (ICRF193 200 nM) over 45.8 µM.

In the case of `CC(C)C[C@H](NC(=O)[C@@H](Cc1c[nH]c2ccccc12)NC(=O)[C@H](Cc1ccc(O)cc1)NC(=O)[C@H](CO)NC(=O)[C@H](Cc1c[nH]c2ccccc12)NC(=O)[C@H](Cc1c[nH]cn1)NC(=O)[C@@H]1CCC(=O)N1)C(=O)N[C@@H](CCCNC(=N)N)C(=O)N1CCC[C@H]1C(=O)NCC(N)=O` [Triptorelin], the IC50 cell viability runs as follows: (ICRF193 0 nM) over 45.8 µM; (ICRF193 200 nM) over 45.8 µM.

In the case of `CCC(C)(Oc1ccc(C2(c3ccc(OC(C)(CC)C(=O)O)cc3)CCCCC2)cc1)C(=O)O` (configuration not stated) [Clinofibrate], the IC50 cell viability by setting is: (ICRF193 0 nM) over 45.8 µM; (ICRF193 200 nM) over 45.8 µM.

On to `CCN(CC)CCOc1ccc2nc(N(C)C)sc2c1` [Diamthazole], for which the IC50 cell viability is over 45.8 µM (ICRF193 0 nM) and over 45.8 µM (ICRF193 200 nM).

Regarding `CC1(C)S[C@@H]2[C@H](NC(=O)[C@H](NC(=O)N3CCNC3=O)c3ccccc3)C(=O)N2[C@H]1C(=O)O` [AZLOCILLIN SODIUM], the IC50 cell viability was over 45.8 µM (ICRF193 0 nM) and over 45.8 µM (ICRF193 200 nM).

With `O=C(O)c1ccccc1C(c1ccc(O)cc1)c1ccc(O)cc1` [Phenolphthalin], the IC50 cell viability is, setting by setting: (ICRF193 0 nM) over 45.8 µM; (ICRF193 200 nM) over 45.8 µM.

In the case of `CC[N+](C)(C)c1cccc(O)c1` [Edrophonium chloride], the IC50 cell viability runs as follows: (ICRF193 0 nM) over 45.8 µM; (ICRF193 200 nM) over 45.8 µM.

Turning to `CC(=O)OCC(=O)[C@@]12N=C(C)O[C@@H]1C[C@H]1[C@@H]3CCC4=CC(=O)C=C[C@]4(C)[C@H]3[C@@H](O)C[C@@]12C` [Deflazacort], the IC50 cell viability was over 45.8 µM (ICRF193 0 nM) and over 45.8 µM (ICRF193 200 nM).

Source of the values: the supplement of paper PMC12137928.
